Measured values published in US20220361500A1, “STRIGOLACTONE DERIVATIVES AS PLANT GROWTH REGULATOR COMPOUNDS” (SYNGENTA CROP PROTECTION AG, priority 2020, published 2022).

System: corn leaf discs (variety Multitop)
Assay: Dark induced senescence of corn leaf
Details: Zea mays, foliar, 192 h, 100 μM-0.0001 μM, 0.5% DMSO, 23° C., 8 days, image analysis, read-out: IC50 (concentration at which 50% senescence was achieved), dark induced senescence of corn leaf
Experimental: It is known that strigolactones regulate (accelerate) leaf senescence, potentially through D14 receptor signaling. Corn plants of variety Multitop were grown in a greenhouse with relative 75% humidity and at 23-25° C. for 6 weeks. 1.4 cm diameter leaf discs were placed into 24-well plates containing test compounds in a concentration gradient (100 μM-0.0001 μM) at a final concentration of 0.5% DMSO. Each concentration was tested in 12 replicates. Plates were sealed with seal foil. The foil was pierced to provide gas exchange in each well. The plates were placed into the completely dark climatic chamber. Plates were incubated in the chamber with 75% humidity and at 23° C. for 8 days. On days 0, 5, 6, 7 and 8 photographs were taken of each plate, and image analysis conducted with a macro developed using the ImageJ software. The image analysis was used to determine the concentration at which 50% senescence was achieved (IC50), see Table 4. The lower the value, the higher senescence induction potency.

| Compound | IC50 [nM] |
| --- | --- |
| CC1=CC(O/C=C2/C(=O)OC3Oc4ccccc4C23)OC1=O (centres unmarked) [Compound I-1, (1E)-1-[(4-methyl-5-oxo-2H-furan-2-yl)oxymethylene]-3a,8b-dihydrofuro[2,3-b]benzofuran-2-one] | 30 |
| CC1=C(C)C(O/C=C2/C(=O)OC3Oc4ccccc4C23)OC1=O (centres unmarked) [Compound I-2, (1E)-1-[(3,4-dimethyl-5-oxo-2H-furan-2-yl)oxymethylene]-3a,8b-dihydrofuro[2,3-b]benzofuran-2-one] | 15 |
| CC1=C(C)C(O/C=C2/C(=O)OC3Sc4ccccc4C23)OC1=O (centres unmarked) [Compound I-8, (1E)-1-[(3,4-dimethyl-5-oxo-2H-furan-2-yl)oxymethylene]-3a,8b-dihydrobenzothiopheno[2,3-b]furan-2-one] | 40 |
| CC1=CC(O/C=C2/C(=O)OC3C2c2ccccc2[S+]3[O-])OC1=O (centres unmarked) [Compound I-13, (1E)-1-[(4-methyl-5-oxo-2H-furan-2-yl)oxymethylene]-4-oxo-3a,8b-dihydrobenzothiopheno[2,3-b]furan-2-one] | 15 |
| CC1=CC(O/C=C2/C(=O)OC3COc4ccccc4C23)OC1=O (centres unmarked) [Compound I-31, (1E)-1-[(4-methyl-5-oxo-2H-furan-2-yl)oxymethylene]-4,9b-dihydro-3aH-furo[2,3-c]chromen-2-one] | 30 |
